In US8722649B2, “Alpha-chloro and alpha-bromo phosphonate analogs of lysophosphatidic acid and methods of making and using thereof” (University of Utah Research Foundation, priority 2007, dated 2014):
Entries after “also recorded” stand apart in the source; their conditions may differ.

Tests used:
PPARγ = target: T1, PPARγ (Homo sapiens, UniProt P37231); test: PPARγ activation assay (PPRE-Acox-Rluc reporter in CV-1 cells); type: cell-based; details: 10 μM test analogue, 20 h
T1 construct: expressed in transfected cells; host or cells: CV-1 cells, transient (LipofectAMINE 2000)
T1 sequence (P37231 1-505): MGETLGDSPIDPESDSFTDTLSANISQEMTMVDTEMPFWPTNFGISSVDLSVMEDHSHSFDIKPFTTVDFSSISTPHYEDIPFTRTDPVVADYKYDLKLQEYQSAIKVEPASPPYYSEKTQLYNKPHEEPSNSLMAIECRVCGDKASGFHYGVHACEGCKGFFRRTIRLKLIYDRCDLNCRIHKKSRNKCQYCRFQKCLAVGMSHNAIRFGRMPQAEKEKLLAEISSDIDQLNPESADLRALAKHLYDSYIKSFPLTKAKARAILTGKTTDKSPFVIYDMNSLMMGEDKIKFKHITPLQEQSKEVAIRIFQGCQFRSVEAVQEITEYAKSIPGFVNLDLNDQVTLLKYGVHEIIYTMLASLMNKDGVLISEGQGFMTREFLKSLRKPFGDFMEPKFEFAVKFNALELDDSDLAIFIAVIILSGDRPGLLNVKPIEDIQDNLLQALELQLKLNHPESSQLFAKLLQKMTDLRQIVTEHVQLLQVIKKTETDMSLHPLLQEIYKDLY
Experimental: PPARγ activation assay. PPARγ activation was performed using CV-1 cells transfected with an acyl-coenzyme A oxidase-luciferase (PPRE-Acox-Rluc) reporter gene construct as previously reported. Briefly, CV-1 cells were plated in 96-well plates at a density of 1×10^4 cells per well in Dulbecco's modified Eagle's medium supplemented with 10% fetal bovine serum. The next day, the cells were transiently transfected with 125 ng of pGL3-PPRE-Acox-Rluc, 62.5 ng of pcDNA3.1 PPARγ, and 12.5 ng of pSV-β-galactosidase (Promega) using LipofectAMINE 2000 (Invitrogen). Twenty-four hours after transfection, cells were treated with OptiMEM (Invitrogen) containing 10 μM Rosiglitazone or 10 μM of the test analogue dissolved in DMSO for 20 h. Luciferase and β-galactosidase activities were measured with Steady-Glo® Luciferase Assay System (Promega) and the Galacto-Light Plus™ system (Applied Biosystems), respectively. Samples were run in quadruplicate and the mean ±standard errors were calculated. Data are representative of at least two independent transfections.

MDA-MB-231 cells [1] = test: Scratch wound healing migration assay; type: cell-based; details: for MDA-MB-231 cell migration in words: 10 and 40 μM, 24 h
Experimental: Inhibition of migration. MDA-MB-231 cells were plated in triplicate into six-well plates at a concentration of 3×10^5 cells per well. Approximately 48 hours later, the confluent cells were carefully scratched using sterile pipette tips. Nonadherent cells and cellular debris were removed by washing with PBS. Fresh medium with or without various concentrations of BrP-LPA 1, syn-BrP-LPA 1a, or anti-BrP-LPA 1b (1-100 μM) were added to the wounded monolayers. Cells were observed under the microscope and digitally photographed at different times. Inhibition of migration was assessed when the wound in the control was closed and quantified by using ImageJ.

MDA-MB-231 cells [2] = test: Orthotopic breast cancer xenograft; type: in vivo, nude mice; details: 3 mg/kg i.p., relative to control group
Experimental: Orthotopic Human Breast Cancer Models. 4-week-old female athymic nude mice (Charles River Laboratories) were anesthetized by intraperitoneal injection of ketamine (80 mg/kg) and xylazine (10 mg/kg),according to the protocol approved by the University of Utah Institutional Animal Care and Use Committee (IACUC). Then the thoracic skin was sterilized with iodine and alcohol swabs.
MDA-MB-231 were trypsinized and resuspended in 2.5% CMHA-S and 3% gelatin-DTPH (v:v=1:1). Then, one volume of 4% PEGDA solution was added to four volumes of the cell suspension, and the resulting suspension was mixed gently by vortexing. The final cell concentration was 5×10^7 cells/ml. When the cell suspension was becoming viscous (ca. 3-5 min at 20° C.), 200 uL of gel was injected subcutaneously into the fourth mammary fat pad of each mouse, using a total of six mice per group.
The assessment of chemotherapy on breast cancer. The mice were randomly divided into 4 groups, including control (physiological saline), paclitaxel, LPA antagonist (19b), and paclitaxel followed by 19b. Six mice for each cell line were necessary to get statistically significant results according to literature. The control group received physiological saline i.p. injection twice per week starting at two weeks after the cell transplantation and ending at two weeks after the treatment. The treatment groups received i.p. administration of paclitaxel (10 mg/kg/day) or 19b (10 mg/kg/day) twice per week with the same period of control group. One additional group included 2 dose of paclitaxel followed by 2 dose of 19b with the same period of control group. The treatment was received […] twice per week for 2 weeks total.
The body weight and tumor size were measured twice per week, and general clinical status of the animals was also assessed every day. Perpendicular tumor diameters were measured using a vernier scale caliper and tumor volume estimated using the formula for ellipsoid: […] (mm^3)=[width(mm)^2×length(mm)]/2. Data are expressed as median tumor areas with interquartile ranges.
Animals were euthanized at 4 weeks postinjection or once any signs of broken skin caused by the extension of tumor are found. Tumors were excised with surrounding tissues for histological evaluation. Analysis of variance was used to analyze the statistical difference on tumor growth between different groups. The results are in FIG. 8, where it is shown that the volume of the tumors is the lowest when mice were treated with paclitaxel followed by the administration of 19b.
Xenograft establishment and chemotherapy. […] The tumor sizes were measured and calculated by formula: tumor size (mm^3)=[width (mm)]^2×[length (mm)]/2. […]

| Structure (SMILES) | PPARγ (PPRE luciferase reporter gene assay) (PPARγ) | MDA-MB-231 cell migration in words (MDA-MB-231 cells [1]) | tumor volume, separate diastereomers (MDA-MB-231 cells [2]) | decrease of MDA-MB-231 cell migration (MDA-MB-231 cells [1]; 40 μM, compared to control, scratch wound) [%] |
| --- | --- | --- | --- | --- |
| CCCCCCCCC=CCCCCCCCC(=O)OCC(O)CC(O)P(=O)([O-])O.[Na+] (mixture of isomers) [Compound 22a, reference compound] | NE (NE = no effect was shown at the highest concentration (30 μM) tested.) |  |  |  |
| CCCCCCCCCCCCCCCC(=O)OCC(O)CC(O)P(=O)([O-])O.[Na+] (mixture of isomers) [Compound 22b, reference compound] | NE (NE = no effect was shown at the highest concentration (30 μM) tested.) |  |  |  |
| CCCCCCCCCCCCCCCC(=O)OC[C@@H](O)C[C@@H](Br)P(=O)(O)O [Compound 1a] |  | inhibited the MDA-MB-231 cell migration | significantly decreased the tumor volume; also recorded: reduces tumor size |  |
| CCCCCCCCCCCCCCCC(=O)OC[C@@H](O)C[C@H](Br)P(=O)(O)O [Compound 1b] |  | inhibited the MDA-MB-231 cell migration | significantly decreased the tumor volume; also recorded: reduces tumor size | 57 |
| CCCCCCCC/C=C\CCCCCCCC(=O)OCC(O)CCP(=O)(O)O (stereo not shown) [Compound 20a, reference compound] | NE (NE = no effect was shown at the highest concentration (30 μM) tested.) |  |  |  |
| CCCCCCCCCCCCCCCC(=O)OC[C@@H](O)CCP(=O)([O-])O.[Na+] [Compound 20b, reference compound] | NE (NE = no effect was shown at the highest concentration (30 μM) tested.) |  |  |  |
| CCCCCCCCCCCCCCCC(=O)OCC(O)COP(=O)(O)O (stereo not shown) [LPA (16:0), reference compound] | NE (NE = no effect was shown at the highest concentration (30 μM) tested.) |  |  |  |
